# Experimental data as given in US11596633B2, “SHP2 inhibitor compositions and methods for treating cancer” (Revolution Medicines, Inc., priority 2017, dated 2023).
# Assays:
# [1] = tested on: RAS-GTP in NCI-H1838 cells; assay: RAS-GTP pulldown (Raf-RBD); assay type: cell-based; conditions: NCI-H1838 (NF1 LOF), MEK inhibition by trametinib
# Method: (§1) To determine the effects of small molecules on levels of activated RAS-GTPase, cell lines of interest were cultured under standard 2D culture conditions. Cells were seeded and following overnight incubation incubated at 37° C. with vehicle (DMSO) or test article(s). After an appropriate incubation period, cells were washed and cell lysis buffer added to prepare a cell lysate. The levels of Ras-GTP in the lysates were determined using affinity purification of a Raf-RBD (Ras binding domain of Raf)/GTP-Ras complex. In one approach, the Pierce Active Ras Pulldown and Detection Kit was used. Briefly, clarified lysates (500 μg total protein, quantified by BCA) were mixed with glutathione resin, which had been preincubated with GST-Raf-RBD. The mixture was vortexed and incubated at 4° C. for 1 hour with gentle rocking. The resin was washed three times with lysis buffer and bound Ras-GTP eluted by addition of 2× reducing sample buffer. Eluted proteins were separated by SDS-PAGE using a 4-15% Tris-glycine gel (BioRad). Proteins were transferred to a nitrocellulose membrane for western blot using an anti-Ras antibody (Thermofisher, 1:200) and a Licor IRDye-800 anti-mouse secondary antibody (1:20,000). The Licor Odyssey CLx was used for visualization.
# as §1, with “resin” for “resin,”
# [2] = tested on: H358 KRas G12C xenograft; assay type: in vivo; conditions: daily PO, Compound C 10 mg/kg, Trametinib 1 mg/kg, Cobimetinib 2.5 mg/kg, Ulixertinib 100 mg/kg
# Method: The positive control, paclitaxel (30 mg/kg iv) in 5% ethanol, 5% cremophor EL, in 5% dextrose in deionized water was administered once every five days. Trametinib (1 mg/kg PO in 0.5% Methylcellulose+0.5% Tween 80) was administered by oral gavage daily. The study endpoint was defined as a mean tumor volume of 2000 mm^3 in the control group or 22 days, whichever came first. Mean tumor volume data are reported for all animals that remained on study.
# (§2) The effects on tumor cell growth in vivo of another SHP2 inhibitor (Compound C) as a monotherapy or as a combination therapy with various Ras pathway inhibitors were evaluated in the NSCLC H358 KRas^G12C and MIA-Pa-Ca-2 xenograft models as described above in Example 1, except that the test article and vehicle formulation was (2% HPMC E-50, 0.5% Tween 80 in 50 mM Sodium Citrate Buffer, pH 4.0)+/− the inhibitor compound(s). […] Test compounds or vehicle control were administered by oral gavage daily. The study endpoint was defined as a mean tumor volume of 2000 mm^3 in the control group or 22 days post-dosing, whichever came first. Mean tumor volume data are reported for all animals that remained on study.
# [3] = tested on: NCI-H358 xenograft; assay: NCI-H358 xenograft, alone and with trametinib (Example 7); conditions: trametinib 1 mg/kg
# Method: The effects of a SHP2 inhibitor on tumor cell growth in vivo were evaluated in the NSCLC H358 xenograft model using female athymic nude mice (6-8 weeks old). Mice were implanted with H358 tumor cells in 50% Matrigel (1×10^7 cells/animal) subcutaneously in the flank. Once tumors reached an average size of 200 mm^3 mice were randomized to treatment groups and administration of test article or vehicle (50 mM acetate buffer, pH 4.6 containing 10% captisol, unless otherwise indicated) initiated. […] Body weight and tumor volume (using calipers) was measured every other day until study endpoints.
# [4] = tested on: MIA-Pa-Ca-2 xenograft; assay: MIA-Pa-Ca-2 xenograft, Compound C with Abemaciclib (Example 8); assay type: in vivo, mice; conditions: Compound C 30 mg/kg PO, Abemaciclib 50 mg/kg
# Excerpt: Similar methods were used to evaluate efficacy of test articles in the pancreatic MiaPaca-2 KRas^G12C xenograft model. Balb/c nude mice (6-8 weeks old) were implanted with […] MiaPaca-2 tumor cells in 50% Matrigel subcutaneously in the flank. […] Administration of test articles and study design are as described above for H358 xenograft model.
# as §2
# [5] = tested on: phosphorylated RTKs in MDA-MB-231 cells; assay: Phospho-RTK array; assay type: cell-based; conditions: MDA-MB-231 (KRAS G13D), 24 hours; selumetinib 5 μM, Compound A 1 and 5 μM
# Method: To determine the effects of test article(s) on levels of phosphorylated RTKs, MDA-MB231 cells were seeded in 6-well plates and incubated overnight in full growth medium. Cells were treated for 24 hours with selumetinib (5 μM) or Compound A (1 and 5 μM) or left untreated (DMSO control). Lysates were generated using the lysis buffer provided with the kit (Phospho-RTK Array; R&D systems) with inclusion of a protease inhibitor cocktail. To control for protein concentration, total protein levels were quantified using BCA reagent kit. The levels of phospho-RTK were determined according to the manufacturer's instructions.
# [6] = tested on: p-ERK1/2 in H1792 cells; assay: p-ERK AlphaLisa SureFire; assay type: cell-based; conditions: H1792 cells (KRAS G12C)
# Method: (§3) Cells were plated at ˜20×10^3 cells per well and following overnight incubation were washed with serum-free media. Cells were then incubated for one hour with increasing concentrations of the test article in serum-free media containing 0.2% BSA prior to termination of the assay and measurement of pERK levels in cellular lysates by AlphaLisa SureFire Ultra kit conducted according to the manufacturer's instructions.
# [7] = tested on: p-ERK1/2 in Calu-1 cells; assay: p-ERK AlphaLisa SureFire; assay type: cell-based, human; conditions: Calu-1 cells (KRAS G12C)
# Method: as §3
# [8] = tested on: p-ERK1/2 in H358 cells; assay: p-ERK AlphaLisa SureFire; assay type: cell-based, human; conditions: H358 cells (KRAS G12C)
# Method: as §3
smiles,measurement,setting,value
"CC(=O)Nc1cccc(-n2c(=O)n(C3CC3)c(=O)c3c(Nc4ccc(I)cc4F)n(C)c(=O)c(C)c32)c1 [Trametinib, reference compound]",feedback-driven RAS-GTP accumulation,[1],caused feedback-driven RAS-GTP accumulation
same,tumor growth as a single agent compared to vehicle control,[2],significant tumor growth inhibition
same,tumor growth as compared to the vehicle control,"[3]; single agent, Compound B 10 and 30 mg/kg",significant tumor growth inhibition
same,"tumor growth inhibition, TGI",[3],79%
O=C(c1ccc(F)c(F)c1Nc1ccc(I)cc1F)N1CC(O)([C@@H]2CCCCN2)C1 [Cobimetinib],tumor growth as a single agent compared to vehicle control,[2],significant tumor growth inhibition
CC(C)Nc1cc(-c2c[nH]c(C(=O)N[C@H](CO)c3cccc(Cl)c3)c2)c(Cl)cn1 [Ulixertinib],tumor growth as a single agent compared to vehicle control,[2],significant tumor growth inhibition
CCN1CCN(Cc2ccc(Nc3ncc(F)c(-c4cc(F)c5nc(C)n(C(C)C)c5c4)n3)nc2)CC1 [Abemaciclib],tumor growth as a single agent compared to vehicle control,[4],significant tumor growth inhibition
"Cn1cnc2c(F)c(Nc3ccc(Br)cc3Cl)c(C(=O)NOCCO)cc21 [selumetinib, Selumetinib, reference compound]",feedback-driven p-RTK hyperactivation,[5],caused feedback-driven p-RTK hyperactivation
"C=CC(=O)N1CC(N2CCN(C(=O)CNc3cc(C4(C)CC4)c(Cl)cc3O)CC2)C1 [ARS-853, reference compound]",inhibition of p-ERK1/2 levels,[6],sensitive
same,inhibition of p-ERK1/2 levels,[7],sensitive
same,inhibition of p-ERK1/2 levels,[8],sensitive
